Source: patent US8048862B2, “Macrocyclic inhibitors of hepatitis C virus replication” (priority 2008, dated 2011)
Where two headings read alike, the source gives them in different places.

Legend:
NS3/NS4 complexes = NS3/NS4 complexes (Hepatitis C virus genotype 1a, UniProt P27958); test: NS3/NS4 inhibition activity (IC50); type: biochemical
Description: NS3-NS4 inhibition activity can be determined using known assay methods. For example, NS3/NS4 complexes may be formed and inhibitory concentrations of test compounds determined as described in U.S. Patent Application Publication Number 2007/0054842 paragraph numbers 1497-1509, which is incorporated herein by reference in its entirety. Similarly, hepatitis C replicon EC50 may be determined using known assay methods such as described in U.S. Patent Application Publication Number 2007/0054842 paragraph numbers 1510-1515. Assays may be conducted at ambient temperature (23° C.) in assay buffer containing 50 mM Tris-HCl, pH 7.5, 15% glycerol, 0.6 mM Lauryldimethylamine Oxide (LDAO), 25 μM NS4A peptide, and 10 mM Dithiothreitol (DTT).

hepatitis C replicon = hepatitis C replicon EC50; type: cell-based; conditions: Hepatitis C virus
Description: NS3-NS4 inhibition activity can be determined using known assay methods.

[1] = Table 2, hepatitis C replicon, read-out: EC50

Chain of NS3/NS4 complexes (P27958 1027-1657): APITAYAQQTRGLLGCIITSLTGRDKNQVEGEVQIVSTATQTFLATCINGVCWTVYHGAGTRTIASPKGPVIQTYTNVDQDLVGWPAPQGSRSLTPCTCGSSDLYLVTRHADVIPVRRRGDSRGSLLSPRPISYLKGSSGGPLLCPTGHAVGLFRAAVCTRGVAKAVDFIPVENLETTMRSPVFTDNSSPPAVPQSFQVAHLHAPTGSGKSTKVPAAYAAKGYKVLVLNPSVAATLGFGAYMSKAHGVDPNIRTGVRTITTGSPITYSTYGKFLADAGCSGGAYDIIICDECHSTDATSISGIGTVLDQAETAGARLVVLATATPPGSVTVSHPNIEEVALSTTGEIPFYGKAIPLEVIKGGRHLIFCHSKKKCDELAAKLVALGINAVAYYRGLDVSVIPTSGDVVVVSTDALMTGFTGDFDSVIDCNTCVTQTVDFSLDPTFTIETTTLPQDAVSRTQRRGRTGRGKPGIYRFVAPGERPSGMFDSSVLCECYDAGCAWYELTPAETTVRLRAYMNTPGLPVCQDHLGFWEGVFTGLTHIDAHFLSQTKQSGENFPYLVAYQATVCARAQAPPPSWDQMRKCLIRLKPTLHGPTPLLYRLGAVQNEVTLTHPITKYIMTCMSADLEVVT
Chain of NS3/NS4 complexes (P27958 1658-1711): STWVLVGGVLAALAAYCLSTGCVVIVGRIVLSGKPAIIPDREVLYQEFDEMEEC

Row | Compound | IC50 (NS3/NS4 complexes; Table 2, read-out: IC50) [nM] | EC50 (hepatitis C replicon; [1]) [nM] | EC50 (hepatitis C replicon; read-out: EC50 nM) [nM] | IC50 (NS3/NS4 complexes; IC50, Table 3) [nM] | IC50 (NS3/NS4 complexes; Table 3, read-out: IC50) [nM]
1 | O=C1N[C@]2(C(=O)O)C[C@H]2/C=C\CCCCC[C@H](Nc2ccccc2)C(=O)N2C[C@H](Oc3nc4ccccc4s3)C[C@@H]12 [Compound 101] | 75 to 500 | > 500 | – | – | –
2 | O=C1N[C@]2(C(=O)O)C[C@H]2/C=C\CCCCC[C@H](Nc2cccc(C(F)(F)F)c2)C(=O)N2C[C@H](Oc3nc4ccccc4s3)C[C@@H]12 [Compound 110] | 10 to 75 | > 500 | – | – | –
3 | CC(C)(C)c1csc(N[C@H]2CCCCC/C=C\[C@@H]3C[C@@]3(C(=O)O)NC(=O)[C@@H]3C[C@@H](Oc4nc5ccccc5s4)CN3C2=O)n1 [Compound 119] | 10 to 75 | > 500 | – | – | –
4 | O=C1N[C@]2(C(=O)NS(=O)(=O)C3CC3)C[C@H]2/C=C\CCCCC[C@H](Nc2ccccc2)C(=O)N2C[C@H](Oc3nc4ccccc4s3)C[C@@H]12 [Compound 157] | < 10 | 10 to 75 | – | – | –
5 | COc1ccc2c(O[C@@H]3C[C@H]4C(=O)N[C@]5(C(=O)NS(=O)(=O)C6CC6)C[C@H]5/C=C\CCCCC[C@H](Nc5ccccc5)C(=O)N4C3)cc(-c3ccccc3)nc2c1 [Compound 164] | < 10 | < 10 | – | – | –
6 | O=C1N[C@]2(C(=O)NS(=O)(=O)C3CC3)C[C@H]2/C=C\CCCCC[C@H](NCc2ccccc2)C(=O)N2C[C@H](Oc3nc4ccccc4s3)C[C@@H]12 [Compound 197] | < 10 | 10 to 75 | – | – | –
7 | CC1(S(=O)(=O)NC(=O)[C@@]23C[C@H]2/C=C\CCCCC[C@H](Nc2ccccc2)C(=O)N2C[C@H](Oc4nc5ccccc5s4)C[C@H]2C(=O)N3)CC1 [Compound 213] | < 10 | 10 to 75 | – | – | –
8 | CC1(S(=O)(=O)NC(=O)[C@@]23C[C@H]2/C=C\CCCCC[C@H](Nc2ccccc2)C(=O)N2C[C@H](Oc4nc5ccc(Br)cc5s4)C[C@H]2C(=O)N3)CC1 [Compound 214] | < 10 | 75 to 500 | – | – | –
9 | CC1(S(=O)(=O)NC(=O)[C@@]23C[C@H]2/C=C\CCCCC[C@H](Nc2ccccc2)C(=O)N2C[C@H](Oc4nc5ccc(Cl)cc5s4)C[C@H]2C(=O)N3)CC1 [Compound 217] | < 10 | 75 to 500 | – | – | –
10 | Cc1ccc2nc(O[C@@H]3C[C@H]4C(=O)N[C@]5(C(=O)NS(=O)(=O)C6(C)CC6)C[C@H]5/C=C\CCCCC[C@H](Nc5ccccc5)C(=O)N4C3)sc2c1 [Compound 218] | < 10 | 75 to 500 | – | – | –
11 | COc1ccc2c(O[C@@H]3C[C@H]4C(=O)N[C@]5(C(=O)NS(=O)(=O)C6(C)CC6)C[C@H]5/C=C\CCCCC[C@H](Nc5ccccc5)C(=O)N4C3)cc(-c3ccccc3)nc2c1 [Compound 220] | < 10 | < 10 | – | – | –
12 | CC1(S(=O)(=O)NC(=O)[C@@]23C[C@H]2/C=C\CCCCC[C@H](Nc2ccccc2)C(=O)N2C[C@H](Oc4nccc5ccccc45)C[C@H]2C(=O)N3)CC1 [Compound 221] | < 10 | 10 to 75 | – | – | –
13 | CC1(S(=O)(=O)NC(=O)[C@@]23C[C@H]2/C=C\CCCCC[C@H](Nc2cccc(C(F)(F)F)c2)C(=O)N2C[C@H](Oc4nc5ccccc5s4)C[C@H]2C(=O)N3)CC1 [Compound 222] | < 10 | 75 to 500 | – | – | –
14 | CC1(S(=O)(=O)NC(=O)[C@@]23C[C@H]2/C=C\CCCCC[C@H](Nc2cccc(C(F)(F)F)c2)C(=O)N2C[C@H](Oc4nc5ccc(Br)cc5s4)C[C@H]2C(=O)N3)CC1 [Compound 223] | < 10 | 75 to 500 | – | – | –
15 | CC1(S(=O)(=O)NC(=O)[C@@]23C[C@H]2/C=C\CCCCC[C@H](Nc2cccc(C(F)(F)F)c2)C(=O)N2C[C@H](Oc4nc5ccc(Cl)cc5s4)C[C@H]2C(=O)N3)CC1 [Compound 226] | < 10 | 75 to 500 | – | – | –
16 | Cc1ccc2nc(O[C@@H]3C[C@H]4C(=O)N[C@]5(C(=O)NS(=O)(=O)C6(C)CC6)C[C@H]5/C=C\CCCCC[C@H](Nc5cccc(C(F)(F)F)c5)C(=O)N4C3)sc2c1 [Compound 227] | < 10 | 75 to 500 | – | – | –
17 | COc1ccc2c(O[C@@H]3C[C@H]4C(=O)N[C@]5(C(=O)NS(=O)(=O)C6(C)CC6)C[C@H]5/C=C\CCCCC[C@H](Nc5cccc(C(F)(F)F)c5)C(=O)N4C3)cc(-c3ccccc3)nc2c1 [Compound 229] | < 10 | < 10 | – | – | –
18 | CC1(S(=O)(=O)NC(=O)[C@@]23C[C@H]2/C=C\CCCCC[C@H](Nc2cccc(C(F)(F)F)c2)C(=O)N2C[C@H](Oc4nccc5ccccc45)C[C@H]2C(=O)N3)CC1 [Compound 230] | < 10 | < 10 | – | – | –
19 | CC(C)(C)c1csc(N[C@H]2CCCCC/C=C\[C@@H]3C[C@@]3(C(=O)NS(=O)(=O)C3(C)CC3)NC(=O)[C@@H]3C[C@@H](Oc4nc5ccccc5s4)CN3C2=O)n1 [Compound 231] | < 10 | 10 to 75 | – | – | –
20 | CC1(S(=O)(=O)NC(=O)[C@@]23C[C@H]2/C=C\CCCCC[C@H](Nc2cccc(F)c2)C(=O)N2C[C@H](Oc4nc5ccccc5s4)C[C@H]2C(=O)N3)CC1 [Compound 235] | < 10 | 10 to 75 | – | – | –

Row | Compound | IC50 (NS3/NS4 complexes; Table 2, read-out: IC50) [nM] | EC50 (hepatitis C replicon; [1]) [nM] | EC50 (hepatitis C replicon; read-out: EC50 nM) [nM] | IC50 (NS3/NS4 complexes; IC50, Table 3) [nM] | IC50 (NS3/NS4 complexes; Table 3, read-out: IC50) [nM]
21 | COc1ccc2c(O[C@@H]3C[C@H]4C(=O)N[C@]5(C(=O)NS(=O)(=O)C6(C)CC6)C[C@H]5/C=C\CCCCC[C@H](Nc5cccc(F)c5)C(=O)N4C3)cc(-c3ccccc3)nc2c1 [Compound 242] | < 10 | < 10 | – | – | –
22 | CC1(S(=O)(=O)NC(=O)[C@@]23C[C@H]2/C=C\CCCCC[C@H](Nc2cccc(F)c2)C(=O)N2C[C@H](Oc4nccc5ccccc45)C[C@H]2C(=O)N3)CC1 [Compound 243] | < 10 | 10 to 75 | – | – | –
23 | COc1cccc(N[C@H]2CCCCC/C=C\[C@@H]3C[C@@]3(C(=O)NS(=O)(=O)C3(C)CC3)NC(=O)[C@@H]3C[C@@H](Oc4nc5ccccc5s4)CN3C2=O)c1 [Compound 244] | < 10 | 10 to 75 | – | – | –
24 | CC1(S(=O)(=O)NC(=O)[C@@]23C[C@H]2/C=C\CCCCC[C@H](NCc2ccccc2)C(=O)N2C[C@H](Oc4nc5ccccc5s4)C[C@H]2C(=O)N3)CC1 [Compound 253] | < 10 | 10 to 75 | – | – | –
25 | O=C1N[C@]2(C(=O)NOc3ccccc3)C[C@H]2/C=C\CCCCC[C@H](NCc2ccccc2)C(=O)N2C[C@H](Oc3nc4ccccc4s3)C[C@@H]12 [Compound 309] | 75 to 500 | > 500 | – | – | –
26 | CC(=O)N(Cc1ccccc1)[C@H]1CCCCC/C=C\[C@@H]2C[C@@]2(C(=O)NS(=O)(=O)C2(C)CC2)NC(=O)[C@@H]2C[C@@H](Oc3nc4ccccc4s3)CN2C1=O [Compound 315] | 10 to 75 | > 500 | – | – | –
27 | CC(=O)N(Cc1ccccc1)[C@H]1CCCCC/C=C\[C@@H]2C[C@@]2(C(=O)NS(=O)(=O)C2CC2)NC(=O)[C@@H]2C[C@@H](Oc3nc4ccccc4s3)CN2C1=O [Compound 316] | 10 to 75 | – | > 500 | – | –
28 | CS(=O)(=O)N(Cc1ccccc1)[C@H]1CCCCC/C=C\[C@@H]2C[C@@]2(C(=O)NS(=O)(=O)C2CC2)NC(=O)[C@@H]2C[C@@H](Oc3nc4ccccc4s3)CN2C1=O [Compound 317] | 75 to 500 | > 500 | – | – | –
29 | CCn1c(O[C@@H]2C[C@H]3C(=O)N[C@]4(C(=O)O)C[C@H]4/C=C\CCCCC[C@H](Nc4cc(F)cc(C(F)(F)F)c4)C(=O)N3C2)nc2ccccc21 [Compound 318] | < 10 | > 500 | – | – | –
30 | CCn1c(O[C@@H]2C[C@H]3C(=O)N[C@]4(C(=O)NS(=O)(=O)C5(C)CC5)C[C@H]4/C=C\CCCCC[C@H](Nc4cc(F)cc(C(F)(F)F)c4)C(=O)N3C2)nc2ccccc21 [Compound 319] | < 10 | < 10 | – | – | –
31 | CC(C)n1c(O[C@@H]2C[C@H]3C(=O)N[C@]4(C(=O)O)C[C@H]4/C=C\CCCCC[C@H](Nc4cc(F)cc(C(F)(F)F)c4)C(=O)N3C2)nc2ccccc21 [Compound 320] | < 10 | < 10 | – | – | –
32 | COc1ccc2c(O[C@@H]3C[C@H]4C(=O)N[C@]5(C(=O)NS(=O)(=O)C6(C)CC6)C[C@H]5/C=C\CCCCC[C@H](Nc5cccc(C(N)=O)c5)C(=O)N4C3)cc(-c3nc(C(C)C)cs3)nc2c1C [Compound 483] | – | < 10 | – | – | –
33 | COc1ccc2c(O[C@@H]3C[C@H]4C(=O)N[C@]5(C(=O)NS(=O)(=O)C6(C)CC6)C[C@H]5/C=C\CCCCC[C@H](Nc5cccc(NS(C)(=O)=O)c5)C(=O)N4C3)cc(-c3nc(C(C)C)cs3)nc2c1C [Compound 484] | – | 10 to 75 | – | – | –
34 | COc1ccc2c(O[C@@H]3C[C@H]4C(=O)N[C@]5(C(=O)NS(=O)(=O)C6(C)CC6)C[C@H]5/C=C\CCCCC[C@H](Nc5ccc(NC(C)=O)cc5)C(=O)N4C3)cc(-c3nc(C(C)C)cs3)nc2c1C [Compound 485] | – | 10 to 75 | – | – | –
35 | CN(C)C(=O)O[C@@H]1C[C@H]2C(=O)N[C@]3(C(=O)N4CCC[C@@H]4C(=O)NCc4ccccc4)C[C@H]3/C=C\CCCCC[C@H](NC(=O)OC(C)(C)C)C(=O)N2C1 [Compound 1090] | – | – | – | > 100 | –
36 | CC(C)(C)OC(=O)N[C@H]1CCCCC/C=C\[C@@H]2C[C@@]2(C(=O)NS(=O)(=O)CC(=O)Nc2ccccc2)NC(=O)[C@@H]2C[C@@H](O)CN2C1=O [Compound 1092] | – | – | – | – | > 100
37 | CN(C)C(=O)O[C@@H]1C[C@H]2C(=O)N[C@]3(C(=O)NS(=O)(=O)CC(=O)Nc4ccccc4)C[C@H]3/C=C\CCCCC[C@H](NC(=O)OC(C)(C)C)C(=O)N2C1 [Compound 1095] | – | – | – | – | > 100
38 | CNC(=O)COc1ccccc1S(=O)(=O)NC(=O)[C@@]12C[C@H]1/C=C\CCCCC[C@H](NC(=O)OC(C)(C)C)C(=O)N1C[C@H](OC(=O)N(C)C)C[C@H]1C(=O)N2 [Compound 1097] | – | – | – | – | < 10
39 | CC(=O)O[C@@H]1C[C@H]2C(=O)N[C@]3(C(=O)NS(=O)(=O)CC(=O)Nc4ccccc4)C[C@H]3/C=C\CCCCC[C@H](NC(=O)OC(C)(C)C)C(=O)N2C1 [Compound 1098] | – | – | – | – | > 100
40 | CC(C)n1c(O[C@@H]2C[C@H]3C(=O)N[C@]4(C(=O)NS(=O)(=O)N(C)C)C[C@H]4/C=C\CCCCC[C@H](NC(=O)OC(C)(C)C)C(=O)N3C2)nc2ccncc21 [Compound 1145] | – | – | – | – | < 10
